Test results taken from patent US10154957B2, “Microneedle device having a peptide therapeutic agent and an amino acid and methods of making and using the same” (3M INNOVATIVE PROPERTIES COMPANY, priority 2011, dated 2018).
Marks after values point to notes of the source that are not given here.

Assay: Percent purity of PTHrP analogue in coating with varying His-HCl concentration, three storage conditions (HPLC)
Format: physicochemical
Settings: peptide 10 mg/mL in PBS
Method: The protein or polypeptide content in the formulation coated on the microneedle arrays was determined using an Agilent 1100 HPLC system (Agilent Technologies, Wilmington, Del.) equipped with a binary pump, well-plated thermostated autosampler, thermostated column compartment, and a diode array UV detector. A Zorbax 300SB-C8 column (Agilent Technologies, Wilmington, Del.) having a 5 μm particle size and 2.1×150 mm inner diameter was used for the separations. The column was maintained at 50° C. The mobile phase consisted of two eluents. Eluent A was 0.1% TFA (trifluoroacetic acid) in water and eluent B was 0.1% TFA in acetonitrile (Spectrum Chemical, New Brunswick, N.J.). A linear gradient from 80/20 to 50/50 (A/B) was applied over 30 minutes. The flow rate was 0.4 mL/minute and the UV detection wavelength was set at 214 nm. The total run time was 34 minutes and the sample injection volume was 15 μL.
Five sample formulations were prepared containing 10 mg/mL of [Glu^22,25,Leu^23,28,31,Aib^29,Lys^26,30]hPTHrP(1-34)NH2 and varying concentrations of L-histidine monohydrochloride (His-HCl) in PBS. The concentrations of His-HCl in the sample formulations range from 1 mg/mL to 10 mg/mL. A control formulation was also prepared containing 10 mg/mL of [Glu^22,25,Leu^23,28,31,Aib^29,Lys^26,30]hPTHrP(1-34)NH2 in PBS. […] Microneedle arrays were coated with either the sample or the control formulations. The coating was applied by dropwise addition of 40 μL of the formulation to the portion of the array defined by the octagon shaped pattern of microneedles. The flood coated arrays (both sample and control formulation coated) were dried in an oven at 35° C. for 1.5 hours followed by 30° C. for 15 hours.
After drying, the coated arrays were placed in a storage chamber that was maintained at one of three storage conditions: 40° C./96% RH (storage condition A); 25° C./60% RH (storage condition B); or 5° C./ambient RH. The [Glu^22,25,Leu^23,28,31,Aib^29,Lys^26,30]hPTHrP(1-34)NH2 content of the coated arrays was determined following storage in a chamber for 1 day, 3 days, 7 days, 14 days, 21 days, 28 days, and 2 months. The initial [Glu^22,25,Leu^23,28,31,Aib^29,Lys^26,30]hPTHrP(1-34)NH2 content was also determined using freshly coated arrays (both sample and control formulation coated). The arrays used to determine initial content were stored in a refrigerator at about 4° C. and analyzed within one day of being prepared. At the designated time point, an array was taken from the chamber and washed with PBS (3.5 mL) to remove the coating from the array. An aliquot of the resulting wash solution was analyzed for [Glu^22,25,Leu^23,28,31,Aib^29,Lys^26,30]hPTHrP(1-34)NH2 content using the HPLC method described above. The results were quantified against an external standard of [Glu^22,25,Leu^23,28,31,Aib^29,Lys^26,30]hPTHrP(1-34)NH2. At each time point, the percent purity of [Glu^22,25,Leu^23,28,31,Aib^29,Lys^26,30]hPTHrP(1-34)NH2 in the coating was determined by measuring the peak area for [Glu^22,25,Leu^23,28,31,Aib^29,Lys^26,30]hPTHrP(1-34)NH2 in the selected coating and dividing it by the total peak area measured for all [Glu^22,25,Leu^23,28,31,Aib^29,Lys^26,30]hPTHrP(1-34)NH2 related peaks.

For “[Glu^22,25,Leu^23,28,31,Aib^29,Lys^26,30]hPTHrP(1-34)NH2”, the “Percent Purity of [Glu^22,25, Leu^23,28,31, Aib^29, Lys^26,30]hPTHrP(1-34)NH2” value (shortened to “Percent Purity”) (Histidine-HCl 1 mg/mL, Storage Condition B (25° C./60% RH), 2 months) was 98.1%, the “Percent Purity” value (Histidine-HCl 1 mg/mL, Storage Condition B (25° C./60% RH), Day 3) was 98.7% and the “Percent Purity” value (Histidine-HCl 1 mg/mL, Storage Condition B (25° C./60% RH), Day 7) was 98.8%. For the same substance, the “Percent Purity” value (Histidine-HCl 1 mg/mL, Storage Condition B (25° C./60% RH), Day 14) was 98.7%, the “Percent Purity” value (Histidine-HCl 1 mg/mL, Storage Condition B (25° C./60% RH), Day 28) was 98.8% and the “Percent Purity” value (Histidine-HCl 1 mg/mL, Storage Condition B (25° C./60% RH), Initial) was 99.0%. For the same substance, the “Percent Purity” value (Histidine-HCl 2 mg/mL, Storage Condition A (40° C./96% RH), Day 1) was 98.4%, the “Percent Purity” value (Histidine-HCl 2 mg/mL, Storage Condition A (40° C./96% RH), Day 3) was 97.5% and the “Percent Purity” value (Histidine-HCl 2 mg/mL, Storage Condition A (40° C./96% RH), Day 7) was 83.2%. The “Percent Purity” value (Histidine-HCl 2 mg/mL, Storage Condition A (40° C./96% RH), Day 14) was 50.0%, the “Percent Purity” value (Histidine-HCl 2 mg/mL, Storage Condition A (40° C./96% RH), Day 21, the sample for analysis contained insoluble impurities) was 36.8^(a) percent and the “Percent Purity” value (Histidine-HCl 2 mg/mL, Storage Condition A (40° C./96% RH), Initial) was 99.0%. For the same substance, the “Percent Purity” value (Histidine-HCl 2 mg/mL, Storage Condition B (25° C./60% RH), 2 months) was 98.1%, the “Percent Purity” value (Histidine-HCl 2 mg/mL, Storage Condition B (25° C./60% RH), Day 3) was 98.8% and the “Percent Purity” value (Histidine-HCl 2 mg/mL, Storage Condition B (25° C./60% RH), Day 7) was 98.8%. For the same substance, the “Percent Purity” value (Histidine-HCl 2 mg/mL, Storage Condition B (25° C./60% RH), Day 14) was 98.8%, the “Percent Purity” value (Histidine-HCl 2 mg/mL, Storage Condition B (25° C./60% RH), Day 28) was 98.9% and the “Percent Purity” value (Histidine-HCl 2 mg/mL, Storage Condition B (25° C./60% RH), Initial) was 99.0%. The “Percent Purity” value (Histidine-HCl 3.3 mg/mL, Storage Condition A (40° C./96% RH), Day 1) was 98.6%, the “Percent Purity” value (Histidine-HCl 3.3 mg/mL, Storage Condition A (40° C./96% RH), Day 3) was 97.8% and the “Percent Purity” value (Histidine-HCl 3.3 mg/mL, Storage Condition A (40° C./96% RH), Day 7) was 93.5%. For the same substance, the “Percent Purity” value (Histidine-HCl 3.3 mg/mL, Storage Condition A (40° C./96% RH), Day 14) was 58.3%, the “Percent Purity” value (Histidine-HCl 3.3 mg/mL, Storage Condition A (40° C./96% RH), Day 21, the sample for analysis contained insoluble impurities) was 78.2^(a) percent and the “Percent Purity” value (Histidine-HCl 3.3 mg/mL, Storage Condition A (40° C./96% RH), Initial) was 99.3%. The “Percent Purity” value (Histidine-HCl 3.3 mg/mL, Storage Condition B (25° C./60% RH), 2 months) was 98.5%, the “Percent Purity” value (Histidine-HCl 3.3 mg/mL, Storage Condition B (25° C./60% RH), Day 3) was 98.9% and the “Percent Purity” value (Histidine-HCl 3.3 mg/mL, Storage Condition B (25° C./60% RH), Day 7) was 98.8%. For the same substance, the “Percent Purity” value (Histidine-HCl 3.3 mg/mL, Storage Condition B (25° C./60% RH), Day 14) was 98.9% and the “Percent Purity” value (Histidine-HCl 3.3 mg/mL, Storage Condition B (25° C./60% RH), Day 28) was 98.8%.
